Here are results for ten compounds from publication PMC6017957, “Synthesis, Anti-Proliferative Activity Evaluation and 3D-QSAR Study of Naphthoquinone Derivatives as Potential Anti-Colorectal Cancer Agents” (Molecules : A Journal of Synthetic Chemistry and Natural …, 2018).

Read-outs that look alike come from different tables or passages of the source.

The test system of data set [1] is HT-29 colorectal cancer cells. The experiment in a line: MTT anti-proliferative assay against HT-29 cells. In kind it is cell-based, human. The conditions noted are these: for IC50: Homo sapiens; for Selectivity Index: SI = IC50Fibroblast/IC50HT-29cells; for Cytotoxic activity category against HT-29: classified by HT-29 IC50. The method, then: (§1) The toxicity of the thirty-six compounds was determined in vitro by means of the MTT assay. Doxorubicin, a drug widely used to treat different types of cancer, was employed as a positive control, whereas the solvent (DMSO) was used as negative control.
(§2) Test compounds were dissolved in DMSO to obtain stock solutions that were maintained as small aliquots at −20 °C. At time of drug addition, an aliquot was thawed and diluted to obtain the desired final maximum test concentration of 100 μM, with complete medium. The final percentage of DMSO in the wells was less than 1% (v/v). […] Anti-Proliferative Assay
(§3) Doxorubicin, a drug widely used to treat different types of cancer, was used as a positive control. After 48 h, the medium was removed and cells were incubated with MTT solution (0.25 mg/mL). Four hours later, the medium was carefully aspired and formazan crystals were dissolved in DMSO (100 μL). The OD550 was measured using a plate reader (Multiskan Go, Thermo Scientific, Waltham, MA, USA). […] The selectivity index (SI), was calculated as a ratio of IC50Fibroblast/IC50HT-29cells.
(§4) The results are expressed as the mean of triplicate measurements in at least two independent experiments.

Another data set relates to fibroblasts PCS-201-012. In words: MTT cytotoxicity assay against normal dermal fibroblasts. It is filed as cell-based. The following applies: Fibroblast, value with 95% confidence interval, read-out: PCS-201-012 IC50 μM (95% CI). The method, then: as §1, §2, §3, §4
(In general: Formazan colour is commonly taken as a measure of viable cells.)

Where [2] appears, read: HT-29, 48 h, MTT, 48 h, 0–100 µM, value with 95% confidence interval, read-out: HT-29 IC50 μM (95% CI).
[3] abbreviates: HT-29, −logIC50 against HT-29, CoMFA training and test sets, read-out: pIC50 Experimental (converted).

Turning to `CC1=C(Cl)C(=O)c2ccccc2C1=O` [Compound 3c, 2-Chloro-3-methylnaphthalene-1,4-dione], the melting point – broadly, the temperature of the solid-liquid transition – is 158 °C. Also, the IC50 in data set [1] (setting [2]) amounted to 11 µM. For the same compound, the IC50 in data set [1] (setting [3]) is 11 µM. In addition, the “Selectivity Index” value in data set [1] was determined as 0.90. In addition, the IC50 in the data set with fibroblasts PCS-201-012 is 9.92 µM.
In the case of `Cc1cc2c(o1)-c1ccccc1C(=O)C2=O` [Compound 4g, 2-Methylnaphtho[1,2-b]furan-4,5-dione], the melting point amounted to 124 °C. For the same compound, in data set [1] (setting [2]), the IC50 turned out to be 8.36 µM. Also, the IC50 in data set [1] (setting [3]) was 8.36 µM. For the same compound, in data set [1], the “Selectivity Index” value is given as 0.23 and the “Cytotoxic activity category against HT-29” value (shortened to “Cytotoxic activity category”) is “highly active”. Besides, in the data set with fibroblasts PCS-201-012, the IC50 was 1.93 µM.
Turning to `CCc1cc2c(o1)-c1ccccc1C(=O)C2=O` [Compound 4h, 2-Ethylnaphtho[1,2-b]furan-4,5-dione], the melting point turned out to be 136 °C. For the same compound, in data set [1] (setting [2]), the IC50 worked out at 13.7 µM. Further, in data set [1] (setting [3]), the IC50 was 13.7 µM. In addition, in data set [1], the “Selectivity Index” value is given as 0.27 and the “Cytotoxic activity category” value was “highly active”. For the same compound, the IC50 with fibroblasts PCS-201-012 was found to be 3.68 µM.
Regarding `CCCCc1cc2c(o1)-c1ccccc1C(=O)C2=O` [Compound 4i, 2-Butylnaphtho[1,2-b]furan-4,5-dione], the melting point came to 64 °C. For the same compound, the IC50 in data set [1] (setting [2]) was 9.16 µM. The IC50 in data set [1] (setting [3]) is 9.16 µM. In data set [1], the “Selectivity Index” value is 0.42 and the “Cytotoxic activity category” value was “highly active”. For the same compound, the IC50 with fibroblasts PCS-201-012 stood at 3.86 µM.
For `O=C1c2ccccc2C(=O)c2occc21` [Compound 4j, Naphtho[2,3-b]furan-4,9-dione], the melting point came out at 229.4 °C. Further, in data set [1] (setting [2]), the IC50 worked out at 8.2 µM. The IC50 in data set [1] (setting [3]) was 8.2 µM. Also, in data set [1], the “Selectivity Index” value is on record as 1.01 and the “Cytotoxic activity category” value is on record as “highly active”. Besides, in the data set on fibroblasts PCS-201-012, the IC50 turned out to be 8.28 µM.
In turn, `COC1(C(C)=O)CC2=C(O1)C(=O)c1ccccc1C2=O` (stereo not shown) [Compound 4l, 2-Acetyl-2-methoxy-2,3-dihydronaphtho[2,3-b]furan-4,9-dione] showed a melting point of 145 °C. The IC50 in data set [1] (setting [2]) amounted to 34.9 µM. In addition, the “Selectivity Index” value in data set [1] amounted to 0.37. Besides, the IC50 with fibroblasts PCS-201-012 worked out at 12.9 µM.
Compound `C=C(C)C1(C)CC2=C(O1)C(=O)c1ccccc1C2=O` (stereo not shown) [Compound 4o, 2-Methyl-2-(prop-1-en-2-yl)-2,3-dihydronaphtho[2,3-b]furan-4,9-dione] came in with a melting point of 135 °C. Further, the IC50 in data set [1] (setting [2]) turned out to be 25.8 µM. The IC50 in the data set with fibroblasts PCS-201-012 is 47.9 µM.
`C=C(C)C1(C)CC2=C(O1)c1ccccc1C(=O)C2=O` (stereo not shown) [Compound 4p, 2-Methyl-2-(prop-1-en-2-yl)-2,3-dihydronaphtho[1,2-b]furan-4,5-dione] displayed a melting point of 147 °C. The IC50 in data set [1] (setting [2]) is 28.1 µM. Also, the “Selectivity Index” value in data set [1] stood at 0.15. Further, the IC50 with fibroblasts PCS-201-012 turned out to be 4.19 µM.
Compound `CC1(C)OC2=C(C(=O)C(=O)c3ccccc32)C1(C)C` [Compound 4s, 2,2,3,3-Tetramethyl-2,3-dihydronaphtho[1,2-b]furan-4,5-dione] yielded a melting point of 91 °C. In addition, in data set [1] (setting [2]), the IC50 was 18.1 µM. In addition, the IC50 in data set [1] (setting [3]) was 18.1 µM. Besides, in data set [1], the “Selectivity Index” value is listed as 1.10. Moreover, in the data set with fibroblasts PCS-201-012, the IC50 was found to be 19.9 µM.
Compound `C=CC1(C)CC2=C(O1)c1ccccc1C(=O)C2=O` (stereo not shown) [Compound 4t, 2-Ethenyl-2-methyl-2,3-dihydronaphtho[1,2-b]furan-4,5-dione] yielded a melting point of 150 °C. Further, the IC50 in data set [1] (setting [2]) was 88.1 µM. The “Selectivity Index” value in data set [1] stood at 0.22. In addition, the IC50 in the data set on fibroblasts PCS-201-012 turned out to be 19.7 µM.
